Measurements taken from US12152038B2, “Vasopressin receptor antagonists and products and methods related thereto” (Neumora Therapeutics, Inc., priority 2017, dated 2024).
Read-outs that look alike come from different tables or passages of the source.

What was measured:
[1] = biological target: T1, MDR1 (P-glycoprotein) (Homo sapiens, UniProt P08183); experiment: MDR1-MDCK permeability and efflux assay (Papp, efflux ratio, effective efflux ratio); assay type: in vitro ADME; conditions: dog; for Papp A→B at 1 h, 10 μM: pH 7.4, read-out: Papp AB MDR1
T1 construct: host or cells: MDCK (MDR1-MDCK; wild-type MDCK as comparator)
T1 sequence (P08183 whole entry): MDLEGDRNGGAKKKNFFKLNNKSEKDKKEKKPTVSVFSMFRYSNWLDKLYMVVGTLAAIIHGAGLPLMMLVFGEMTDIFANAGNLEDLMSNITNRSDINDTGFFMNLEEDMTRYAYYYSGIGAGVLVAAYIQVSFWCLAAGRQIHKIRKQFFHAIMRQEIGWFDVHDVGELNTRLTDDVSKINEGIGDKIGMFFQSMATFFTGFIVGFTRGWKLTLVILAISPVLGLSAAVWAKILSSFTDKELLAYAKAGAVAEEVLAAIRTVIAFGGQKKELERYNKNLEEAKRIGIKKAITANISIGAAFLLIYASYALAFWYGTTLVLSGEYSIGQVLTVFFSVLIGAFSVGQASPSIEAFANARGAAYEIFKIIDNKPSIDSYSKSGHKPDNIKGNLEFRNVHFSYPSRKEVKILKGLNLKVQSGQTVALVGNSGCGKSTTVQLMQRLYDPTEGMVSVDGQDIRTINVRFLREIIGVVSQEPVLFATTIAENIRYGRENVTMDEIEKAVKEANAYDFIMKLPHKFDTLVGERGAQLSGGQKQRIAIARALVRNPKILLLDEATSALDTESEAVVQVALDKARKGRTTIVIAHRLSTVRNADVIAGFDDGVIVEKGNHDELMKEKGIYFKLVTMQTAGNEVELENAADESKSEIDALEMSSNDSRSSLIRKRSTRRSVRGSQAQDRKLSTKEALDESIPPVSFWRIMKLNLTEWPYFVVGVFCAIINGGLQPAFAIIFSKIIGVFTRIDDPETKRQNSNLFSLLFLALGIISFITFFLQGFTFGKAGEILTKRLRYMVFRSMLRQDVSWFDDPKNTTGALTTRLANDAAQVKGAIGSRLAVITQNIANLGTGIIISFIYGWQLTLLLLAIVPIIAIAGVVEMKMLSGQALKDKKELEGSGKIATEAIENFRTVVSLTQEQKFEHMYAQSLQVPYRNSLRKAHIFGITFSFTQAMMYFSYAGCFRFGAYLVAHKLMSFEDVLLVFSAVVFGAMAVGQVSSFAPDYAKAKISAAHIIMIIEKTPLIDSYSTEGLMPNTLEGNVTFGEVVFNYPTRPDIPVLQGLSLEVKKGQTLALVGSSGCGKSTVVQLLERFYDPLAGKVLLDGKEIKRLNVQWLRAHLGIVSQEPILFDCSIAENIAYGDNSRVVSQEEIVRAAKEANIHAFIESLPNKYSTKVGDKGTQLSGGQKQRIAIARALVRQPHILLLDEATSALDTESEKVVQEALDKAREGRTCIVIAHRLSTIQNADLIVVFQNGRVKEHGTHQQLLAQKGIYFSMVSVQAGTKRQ
Procedure: The MDR1-MDCK effective efflux assay was performed as described in the BioFocus Standard Operating Procedure, ADME-SOP-56. Both wild-type (WT) and MDR1-MDCK cells (Solvo Biotechnology) were seeded onto 24-well Transwell plates at 2.35×10^5 cells per well and used in confluent monolayers after a 3 day culture at 37° C. under 5% CO2. For both cell types, test and control compounds (propranolol, vinblastine) were added (10 μM, 0.1% DMSO final, n=2) to donor compartments of the Transwell plate assembly in assay buffer (Hanks balanced salt solution supplemented with 25 mM HEPES, adjusted to pH 7.4) for both apical to basolateral (A>B) and basolateral to apical (B>A) measurements. Incubations were performed at 37° C., with samples removed from both donor and acceptor chambers at T=0 and 1 hour and compound analysed by mass spectrometry (LC-MS/MS) including an analytical internal standard.
Apparent permeability (Papp) values were determined from the relationship: Papp=[CompoundAcceptor T=end]×V Acceptor/([Compound Donor T=0]×V Donor)/incubation time×V Donor/Area×60×10^−6 cm/s
In this equation, V is the volume of each Transwell compartment (apical 125 μL, basolateral 600 μL), and concentrations are the relative MS responses for compound (normalized to internal standard) in the donor chamber before incubation and acceptor chamber at the end of the incubation, and Area is the area of cells exposed for drug transfer (0.33 cm^2).
Efflux ratios (Papp B>A/Papp A>B) were calculated for each compound from the mean Papp values in each direction for both wild-type and MDR1-MDCK cells.
In order to confirm the involvement of MDR1 in any efflux seen, an “effective efflux ratio” (EER) was calculated by comparing compound efflux ratios (ER) in the two cell types by the following equation: EER=ER(MDR1-MDCK)/ER(wild-type MDCK)
This ratio illustrates the effect of the over-expressed MDR1 normalised for the background movement of compound through the wild-type cells.
Lucifer Yellow (LY) was added to the apical buffer in all wells to assess viability of the cell layer. […] Recoveries<50% indicates compound solubility, stability or binding issues, thereby reducing the reliability of a result.
The inherent ability of a potential drug molecule to penetrate the blood brain barrier and avoid efflux by transporters expressed in the brain, can be roughly correlated with the Papp(A-B) and the efflux ratio (as defined above), respectively. A potential drug molecule with an apparent permeability<7 (10^−6 cm/sec) has low permeability (+), >7 (10^−6 cm/sec) but <10 (10^−6 cm/sec) has moderate permeability (++), >10 (10^−6 cm/sec) but <20 (10^−6 cm/sec) has good permeability (+++), and >20 (10^−6 cm/sec) is highly permeable (++++). High permeability in the WT and MDCK II cell permeability assay increases the probability of blood brain barrier penetration and access to the CNS. A potential drug molecule in the above assay system with an efflux ratio or effective efflux ratio of <1 has low probability of being an efflux substrate (++++), >1 but <2 has moderate probability of being an efflux substrate (+++), >2 but <3 has has an increased probability of being an efflux substrate (++), and >3 has a high probability of being an efflux substrate (+). If a potential drug molecule is an efflux substrate, the molecule will have a low probability of reaching exposures in the brain (site of action) that will result in efficacious levels of receptor occupancy.

[2] = biological target: T2, human Arginine Vasopressin Receptor 1a (AVPR1a) (Homo sapiens, UniProt P37288); experiment: Vasopressin V1a receptor antagonist assay (FLIPR calcium, CHO-AVPR1a cells); assay type: cell-based
T2 construct: expressed in transfected cells; host or cells: CHO (CHO-AVPR1a, kept under G418 selection)
T2 sequence (P37288 whole entry): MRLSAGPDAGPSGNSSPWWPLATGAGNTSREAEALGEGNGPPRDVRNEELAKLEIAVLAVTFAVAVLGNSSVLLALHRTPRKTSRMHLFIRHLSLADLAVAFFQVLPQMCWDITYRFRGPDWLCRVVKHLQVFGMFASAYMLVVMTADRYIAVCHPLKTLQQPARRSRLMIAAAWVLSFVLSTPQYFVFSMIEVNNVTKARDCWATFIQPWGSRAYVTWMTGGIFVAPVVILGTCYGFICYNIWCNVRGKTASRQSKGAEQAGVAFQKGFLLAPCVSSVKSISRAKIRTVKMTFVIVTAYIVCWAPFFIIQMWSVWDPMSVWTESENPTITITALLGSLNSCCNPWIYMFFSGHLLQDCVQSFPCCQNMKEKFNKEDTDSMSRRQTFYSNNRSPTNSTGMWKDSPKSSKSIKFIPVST
How it was run: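 CHO cells expressing human AVPR1a were loaded with Calcium-6 dye and preincubated with compound for 15 min at 37° C. Cells were then challenged with AVP at its daily-determined EC80, and FLIPR fluorescence was read. Compounds were tested in duplicate as 10-point 1:3 dilutions from a top final concentration of 3 μM.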

[3] = MDCK-MDR1, pH 7.4, ER(MDR1-MDCK)/ER(wild-type MDCK), read-out: EER (Effective Efflux Ratio)
[4] = MDCK-MDR1, pH 7.4, Papp B>A/Papp A>B, MDR1-MDCK cells, read-out: ER MDR1 (Efflux Ratio)

Structure (SMILES) | IC50 [2] [nM] | other results
Cc1nccnc1N1CC2(CN(C(=O)N3c4ccc(Cl)cc4OCC3C)C2)C1 (stereo not drawn) [20-10] | < 100 | efflux ratio at 1 h, 10 μM [1, 3]: < 1; efflux ratio at 1 h, 10 μM [1, 4]: < 1; Papp A→B at 1 h, 10 μM ([1]; MDR1-MDCK cells): > 20 ×10⁻⁶ cm/s
CC1COc2cc(F)c(F)cc2N1C(=O)N1CC2(C1)CN(c1ccc(F)cn1)C2 (stereo not drawn) [19-5] | < 100 | efflux ratio at 1 h, 10 μM [1, 3]: 1 to 2; efflux ratio at 1 h, 10 μM [1, 4]: 1 to 2; Papp A→B at 1 h, 10 μM ([1]; MDR1-MDCK cells): > 20 ×10⁻⁶ cm/s
CC1COc2cc(F)c(F)cc2N1C(=O)N1CC2(C1)CN(c1cccnn1)C2 (single isomer, unassigned) [19-3-B] | < 100 | 
CC1COc2cc(F)ccc2N1C(=O)N1CC2(C1)CN(c1ccc(F)cn1)C2 (stereo not drawn) [12-1, (7-fluoro-3-methyl-2,3-dihydro-4H-benzo[b][1,4]oxazin-4-yl)(6-(5-fluoropyridin-2-yl)-2,6-diazaspiro[3.3]heptan-2-yl)methanone] | < 100 | 
CC1CN(C(=O)N2CC3(C2)CN(c2ccc(F)cn2)C3)c2ccc(F)cc2O1 (single isomer, unassigned) [9-4-B] | < 100 | 
CC1COc2cc(Cl)ccc2N1C(=O)N1CC2(C1)CN(c1cccnn1)C2 (stereo not drawn) [9-1, (7-chloro-3-methyl-2,3-dihydro-4H-benzo[b][1,4]oxazin-4-yl)(6-(pyridazin-3-yl)-2,6-diazaspiro[3.3]heptan-2-yl)methanone] | < 100 | 
COc1ccnc(N2CC3(CN(C(=O)N4c5ccc(Cl)cc5OCC4C)C3)C2)c1 (single isomer, unassigned) [20-8-B] | < 100 | efflux ratio at 1 h, 10 μM [1, 3]: < 1; efflux ratio at 1 h, 10 μM [1, 4]: < 1; Papp A→B at 1 h, 10 μM ([1]; MDR1-MDCK cells): > 20 ×10⁻⁶ cm/s
CC1COc2cc(F)c(F)cc2N1C(=O)N1CC2(C1)CN(c1ncccn1)C2 (stereo not drawn) [19-1, (6,7-difluoro-3-methyl-2,3-dihydro-4H-benzo[b][1,4]oxazin-4-yl)(6-(pyrimidin-2-yl)-2,6-diazaspiro[3.3]heptan-2-yl)methanone] | < 100 | 
CC1COc2cc(Cl)ccc2N1C(=O)N1CC2(C1)CN(c1cccnn1)C2 (single isomer, unassigned) [9-1-A] | ≥ 1000 | 
Cc1nc(N2CC3(CN(C(=O)N4c5ccc(Cl)cc5OCC4C)C3)C2)ncc1F (stereo not drawn) [20-7] | < 100 | 
CC1COc2cc(F)ccc2N1C(=O)N1CC2(C1)CN(c1ncc(F)cn1)C2 (single isomer, unassigned) [18-4-B] | < 100 | 
O=C(N1CC2(C1)CN(c1cnccn1)C2)N1CCOCc2cc(Cl)ccc21 [8-13] | < 100 | 
O=C(N1CC2(C1)CN(c1ncccc1F)C2)N1CCc2cc(Cl)ccc21 [1-76] | < 100 | 
Cc1nc(N2CC3(CN(C(=O)N4CCOc5cc(Cl)ccc54)C3)C2)ncc1F [6-1, (7-chloro-2,3-dihydro-4H-benzo[b][1,4]oxazin-4-yl)(6-(5-fluoro-4-methylpyrimidin-2-yl)-2,6-diazaspiro[3.3]heptan-2-yl)methanone] | < 100 | 
COc1ccnc(N2CC3(CN(C(=O)N4CCOc5cc(Cl)ccc54)C3)C2)c1 [1-15] | < 100 | 
CC1COc2cc(Cl)ccc2N1C(=O)N1CC2(C1)CN(c1cccnc1)C2 (single isomer, unassigned) [20-1-B] | < 100 | 
CC1COc2cc(Cl)ccc2N1C(=O)N1CC2(C1)CN(c1cccnc1)C2 (stereo not drawn) [20-1, (7-chloro-3-methyl-2,3-dihydro-4H-benzo[b][1,4]oxazin-4-yl)(6-(pyridin-3-yl)-2,6-diazaspiro[3.3]heptan-2-yl)methanone] | < 100 | 
O=C(N1CC2(C1)CN(c1cccnn1)C2)N1CCOc2cc(Cl)c(F)cc21 [1-81] | < 100 | 
O=C(N1CC2(C1)CN(c1ccc(F)cn1)C2)N1CCOc2cc(F)c(F)cc21 [9-6] | < 100 | 
CCC1COc2cc(Cl)ccc2N1C(=O)N1CC2(C1)CN(c1ccccn1)C2 (stereo not drawn) [11-1, (7-chloro-3-ethyl-2,3-dihydro-4H-benzo[b][1,4]oxazin-4-yl)(6-(pyridin-2-yl)-2,6-diazaspiro[3.3]heptan-2-yl)methanone] | < 100 | 
CC1COc2cc(F)c(F)cc2N1C(=O)N1CC2(C1)CN(c1ccc(F)cn1)C2 (single isomer, unassigned) [19-5-B] | < 100 | 
CC1CN(C(=O)N2CC3(C2)CN(c2ccc(F)cn2)C3)c2ccc(Cl)cc2O1 (single isomer, unassigned) [9-3-A] | < 100 | 
O=C(N1CC2(C1)CN(c1cnccn1)C2)N1CCC(O)c2cc(Cl)ccc21 (stereo not drawn) [13-3] | < 100 | 

Structure (SMILES) | IC50 [2] [nM] | other results
Cc1cnc(N2CC3(CN(C(=O)N4c5ccc(Cl)cc5OCC4C)C3)C2)nc1 (stereo not drawn) [20-13] | < 100 | 
CC1Cc2cc(Cl)ccc2N1C(=O)N1CC2(C1)CN(c1ccc(F)cn1)C2 (stereo not drawn) [8-16] | < 100 | 
Cc1ccnc(N2CC3(CN(C(=O)N4CCOc5cc(Cl)ccc54)C3)C2)c1 [1-14] | < 100 | 
O=C(N1CC2(C1)CN(c1ccc(F)cn1)C2)N1CCC(F)c2cc(Cl)ccc21 (stereo not drawn) [14-1, (6-chloro-4-fluoro-3,4-dihydroquinolin-1(2H)-yl)(6-(5-fluoropyridin-2-yl)-2,6-diazaspiro[3.3]heptan-2-yl)methanone] | < 100 | 
CC1COc2cc(Cl)c(F)cc2N1C(=O)N1CC2(C1)CN(c1ncccn1)C2 (stereo not drawn) [19-2] | < 100 | 
O=C(N1CC2(C1)CN(c1ncccn1)C2)N1CCOc2cc(Cl)ccc21 [1-4] | < 100 | 
Cc1ccnc(N2CC3(CN(C(=O)N4c5ccc(Cl)cc5OCC4C)C3)C2)n1 (stereo not drawn) [20-12] | < 100 | 
CC1CN(C(=O)N2CC3(C2)CN(c2ccc(F)cn2)C3)c2ccc(Cl)cc2O1 (stereo not drawn) [9-3] | < 100 | 
Cc1cccnc1N1CC2(CN(C(=O)N3CCOc4cc(Cl)ccc43)C2)C1 [1-5] | < 100 | 
O=C(N1CC2(C1)CN(c1cnccn1)C2)N1CCC(O)c2cc(Cl)ccc21 (single isomer, unassigned) [13-3-A] | < 100 | 
COc1ccc2c(c1)OCCN2C(=O)N1CC2(C1)CN(c1ccc(F)cn1)C2 [9-2] | < 100 | 
O=C(N1CC2(C1)CN(c1ccccn1)C2)N1CCc2cc(Cl)ccc21 [1-77] | < 100 | 
O=C(N1CC2(C1)CN(c1noc3ccccc13)C2)N1CCOc2cc(Cl)ccc21 [4-1, (6-(benzo[d]isoxazol-3-yl)-2,6-diazaspiro[3.3]heptan-2-yl)(7-chloro-2,3-dihydro-4H-benzo[b][1,4]oxazin-4-yl)methanone] | < 100 | 
CC1COc2cc(F)ccc2N1C(=O)N1CC2(C1)CN(c1ncccn1)C2 (stereo not drawn) [18-1, (7-fluoro-3-methyl-2,3-dihydro-4H-benzo[b][1,4]oxazin-4-yl)(6-(pyrimidin-2-yl)-2,6-diazaspiro[3.3]heptan-2-yl)methanone] | < 100 | 
CC1COc2cc(Cl)ccc2N1C(=O)N1CC2(C1)CN(c1cc(C#N)ccn1)C2 (stereo not drawn) [20-6] | < 100 | 
Cc1cnc(N2CC3(CN(C(=O)N4c5ccc(Cl)cc5OCC4C)C3)C2)cn1 (single isomer, unassigned) [20-5-B] | < 100 | 
O=C(N1CC2(C1)CN(c1cccc(F)n1)C2)N1CCc2cc(Cl)ccc21 [1-78] | < 100 | 
CC1COc2cc(F)c(F)cc2N1C(=O)N1CC2(C1)CN(c1cccnn1)C2 (stereo not drawn) [19-3] | < 100 | 
CC1COc2cc(Cl)c(F)cc2N1C(=O)N1CC2(C1)CN(c1cccnc1)C2 (stereo not drawn) [19-6] | < 100 | 
O=C(N1CC2(C1)CN(c1cc(F)ccn1)C2)N1CCc2cc(Cl)ccc21 [1-79] | < 100 | 
O=C(N1CC2(C1)CN(c1ncc(F)cn1)C2)N1CCOc2cc(Cl)ccc21 [4-2] | < 100 | 
O=C(N1CC2(C1)CN(c1ccccn1)C2)N1CCC(O)c2cc(Cl)ccc21 (single isomer, unassigned) [13-2-A] | < 100 | 
